Measurements reported in patent US8129355B2, “Ketone ligands for modulating the expression of exogenous genes via an ecdysone receptor complex” (priority 2002, dated 2012).

What was measured:
[1] = target: T1, GAL4 DBD-CfEcR(DEF)/VP16AD-MmRXRE (Choristoneura fumiferana, UniProt O77240); assay: cell-based; conditions: for fold induction at 33 µM: CHO, read-out: Fold Induction Average, 13B3 Assay (33 μM); for 13B3 Rel Max FI: maximum fold induction at any concentration relative to that of GS-E ligand
T1 sequence (O77240 1-513): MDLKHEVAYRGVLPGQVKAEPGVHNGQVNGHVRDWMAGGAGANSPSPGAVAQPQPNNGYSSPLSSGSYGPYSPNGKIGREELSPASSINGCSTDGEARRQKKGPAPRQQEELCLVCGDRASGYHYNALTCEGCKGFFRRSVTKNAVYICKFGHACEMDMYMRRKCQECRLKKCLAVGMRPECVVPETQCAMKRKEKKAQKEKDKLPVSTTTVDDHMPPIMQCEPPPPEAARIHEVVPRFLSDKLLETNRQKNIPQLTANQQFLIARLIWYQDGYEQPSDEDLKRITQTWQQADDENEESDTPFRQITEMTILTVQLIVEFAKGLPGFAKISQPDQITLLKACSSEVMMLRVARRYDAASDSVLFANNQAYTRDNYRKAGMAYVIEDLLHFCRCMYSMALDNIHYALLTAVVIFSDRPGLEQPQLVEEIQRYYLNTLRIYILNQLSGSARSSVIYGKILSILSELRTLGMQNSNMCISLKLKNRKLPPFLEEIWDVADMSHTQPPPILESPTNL
Source text: GAL4 DBD-CfEcR(DEF)/VP16AD-MmRXRE: The wild-type D, E, and F domains from spruce budworm Choristoneura fumiferana EcR (“CfEcR-DEF”; SEQ ID NO: 1) were fused to a GAL4 DNA binding domain (“Gal4 DBD1-147”; nucleotides 31 to 471 of SEQ ID NO: 2) and placed under the control of the SV40e promoter of pM vector (PT3119-5, Clontech, Palo Alto, Calif.). The D and E domains from Mus Musculus RXR (“MmRXR-DE”; SEQ ID NO: 10) were fused to the transactivation domain from VP16 (“VP16AD”; SEQ ID NO: 5) and placed under the control of the SV40e promoter of the pVP16 vector (PT3127-5, Clontech, Palo Alto, Calif.).
CHO cells were transienty transfected with transcription cassettes for GAL4 DBD-CfEcR(DEF) and for VP16AD-MmRXRE controlled by SV40e promoters. Stably transfected cells were selected using Hygromycin. Individually isolated CHO cell clones were transiently transfected with a GAL4 RE-luciferase reporter (pMR-Luc, Stratagene, La Jolla, Calif.). The 13B3 clone was selected using Zeocin.
Cells were trypsinized and diluted to a concentration of 2.5×10^4 cells mL. 100 μL of cell suspension was placed in each well of a 96 well plate and incubated at 37° C. under 5% CO2 for 24 h. Ligand stock solutions were prepared in DMSO and diluted 300 fold for all treatments. Dose response testing consisted of 8 concentrations ranging from 33 μM to 0.01 μM.
Luciferase reporter gene expression was measured 48 h after cell treatment using Bright-Glo™ Luciferase Assay System from Promega (E2650). Luminescence was detected at room temperature using a Dynex MLX microtiter plate luminometer.
Fold inductions were calculated from single dose testing by dividing relative light units (RLU) in ligand treated cells by RLU in DMSO treated cells. BC50s were calculated from dose response data using a three-parameter logistic model.

[2] = target: T2, Bombyx mori EcR (VP16 fusion, switch construct CVBE) with 6XEcRE LacZ reporter (Bombyx mori, UniProt P49881); assay: Z3 assay: β-galactosidase (LacZ) reporter gene fold induction in stably transformed human 293 kidney cells (clone Z3); type: cell-based; conditions: for Fold Induction Average, Z3 Assay (33 μM): single dose 33 μM, ligand treated / DMSO treated cells; for Z3 Rel Max FI: maximum fold induction at any concentration relative to that of GS-E ligand; for fold induction at 33 µM: read-out: Fold Induction Average, Z3 Assay (33 μM); for CC50: read-out: Z3 LC50, average, dose response, three-parameter logistic model
T2 construct: expressed in transfected cells; host or cells: Human 293 kidney (HEK-293) cells, retrovirally infected, clone Z3
T2 sequence (P49881 86-606 limits assumed): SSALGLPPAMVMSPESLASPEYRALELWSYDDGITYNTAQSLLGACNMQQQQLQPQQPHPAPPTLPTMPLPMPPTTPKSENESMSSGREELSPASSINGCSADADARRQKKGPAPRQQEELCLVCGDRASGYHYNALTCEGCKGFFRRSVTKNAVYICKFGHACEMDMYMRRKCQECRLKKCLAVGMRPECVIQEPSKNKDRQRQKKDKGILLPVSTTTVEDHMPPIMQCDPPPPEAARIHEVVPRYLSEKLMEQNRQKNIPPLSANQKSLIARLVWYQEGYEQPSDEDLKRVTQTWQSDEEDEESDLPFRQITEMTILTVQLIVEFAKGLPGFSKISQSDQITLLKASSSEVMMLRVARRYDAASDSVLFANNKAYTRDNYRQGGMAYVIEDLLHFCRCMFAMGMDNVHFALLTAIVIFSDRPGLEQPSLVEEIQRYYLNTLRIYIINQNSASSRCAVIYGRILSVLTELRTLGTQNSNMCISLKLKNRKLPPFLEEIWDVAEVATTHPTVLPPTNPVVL
T2 sequence (P19793 1-462 partner): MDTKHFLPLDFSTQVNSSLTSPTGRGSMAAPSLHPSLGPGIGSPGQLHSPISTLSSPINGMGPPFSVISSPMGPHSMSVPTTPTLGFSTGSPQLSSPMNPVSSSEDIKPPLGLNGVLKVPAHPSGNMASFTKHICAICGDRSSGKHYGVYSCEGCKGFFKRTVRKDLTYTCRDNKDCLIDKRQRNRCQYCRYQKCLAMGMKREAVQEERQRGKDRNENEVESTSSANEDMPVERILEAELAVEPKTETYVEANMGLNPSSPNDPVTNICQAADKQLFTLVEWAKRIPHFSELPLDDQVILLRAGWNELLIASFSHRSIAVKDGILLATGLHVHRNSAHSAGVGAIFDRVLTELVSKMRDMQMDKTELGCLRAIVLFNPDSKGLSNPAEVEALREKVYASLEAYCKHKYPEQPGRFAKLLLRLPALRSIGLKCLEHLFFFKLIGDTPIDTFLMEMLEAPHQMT
Source text: Dr. F. Gage provided a population of stably transformed cells containing CVBE and 6XEcRE as described in Suhr, S. T., Gil, E. B., Senut M. C., Gage, F. H. (1998) Proc. Natl. Acad. Sci. USA 95, 7999-804. Human 293 kidney cells, also referred to as HEK-293 cells, were sequentially infected with retroviral vectors encoding first the switch construct CVBE, and subsequently the reporter construct 6XEcRE Lac Z. The switch construct contained the coding sequence for amino acids 26-546 from Bombyx mori EcR (BE) (Iatrou) inserted in frame and downstream of the VP16 transactivation domain (VBE). A synthetic ATG start codon was placed under the control of cytomegalovirus (CVBE) immediate early promoter and flanked by long terminal repeats (LTR). The reporter construct contained six copies of the ecdysone response element (EcRE) binding site placed upstream of LacZ and flanked on both sides with LTR sequences (6XEcRE).
Dilution cloning was used to isolate individual clones. Clones were selected using 450 ug/mL G418 and 100 ng/mL puromycin. Individual clones were evaluated based on their response in the presence and absence of test ligands. Clone Z3 was selected for screening and SAR purposes.
Human 293 kidney cells stably transformed with CVBE and 6XEcRE lack were maintained in Minimum Essential Medium (Mediates, 10-010-CV) containing 10% FBS (Life Technologies, 26140-087), […] G418 (Mediates, 30-234-CR), and […] (Sigma, P-7255), at 37° C. in an atmosphere containing 5% CO2 and were subculture when they reached 75% confluence.
Z3 cells were seeded into 96-well tissue culture plates at a concentration of 2.5×10^3 cells per well and incubated at 37° C. in 5% CO2 for twenty-four hours. Stock solutions of ligands were prepared in DMSO. Ligand stock solutions were diluted 100 fold in media and 50 μL of this diluted ligand solution (33 μM) was added to cells. The final concentration of DMSO was maintained at […] in both controls and treatments.
Reporter gene expression was evaluated 48 hours after treatment of cells, β-galactosidase activity was measured using Gal Screen™ bioluminescent reporter gene assay system from Tropix (GSY1000).
Flanking both constructs are long terminal repeats, G418 and puromycin are selectable markers, CMV is the cytomegalovirus promoter, VBE is coding sequence for amino acids 26-546 from Bombyx mori EcR inserted downstream of the VP16 transactivation domain, 6×EcRE is six copies of the ecdysone response element, lacZ encodes for the reporter enzyme β-galactosidase. Suhr, S. T., Gil, E. B., Senut M. C., Gage, F. H. (1998) Proc. Natl. Acad. Sci. USA 95, 7999-804. Swevers, L., Drevet, J. R., Lunke, M. D., Iatrou, K. (1995) Insect Biochem. Mol. Biol. 25, 857-866.

Structure (SMILES) | Fold Induction Average, 13B3 Assay (33 μM) [1] | Fold Induction Average, Z3 Assay (33 μM) [2] | other results
CC(=O)NC(C(=O)c1ccccc1)c1ccc(C)cc1 (centres unmarked) [Example 93] | 0 | 1 | 
COc1cccc(C(=O)NC2(C(=O)c3ccc4c(c3)OCO4)CCCCC2)c1C [Example 47] | 3 | 21 | 
CCC(CC)(NC(=O)c1cccc(OC)c1C)C(=O)c1ccc2c(c1)OCO2 [Example 59] | 0 | 2 | 
COc1cccc(C(=O)NC2(C(=O)c3ccccc3C)CC2)c1C [Example 101] | 2 | 2 | 
COc1cccc(C(=O)NC2(C(=O)c3cccc(C)c3)CCC3(CC2)OCCO3)c1C [Example 35] | 2 | 9 | 
COc1cccc(C(=O)NC2(C(=O)c3cccc(C)c3)CCC2)c1C [Example 6] |  |  | EC50 [1]: > 33 µM; fold induction at 33 µM [1]: 1; 13B3 Rel Max FI [1]: 0.00; Z3 Rel Max FI [2]: 0.05; fold induction at 33 µM [2]: 82; CC50 [2]: 10.7 µM
COc1ccccc1C(=O)NC(C)(C)C(=O)c1cccc(C)c1 [Example 116] | 4 | 1 | 
COc1ccc(C(=O)C2(NC(=O)c3cccc(OC)c3C)CCCC2)cc1 [Example 41] | 2 | 4 | 
Cc1ccccc1C(=O)NC(C)(C)C(=O)c1ccccc1 [Example 105] | 3 | 1 | 
CCC(CC)(NC(=O)c1cccc(OC)c1C)C(=O)c1ccccc1C [Example 36] | 0 | 4 | 
Cc1c(C(=O)NC2(C(=O)c3ccccc3)CCCC2)oc2ccccc12 [Example 102] | 1 | 1 | 
COc1cccc(C(=O)NC(C(=O)c2cc(C)cc(C)c2)C(C)(C)C)c1C (centres unmarked) [Example 115] | 1 | 15 | 
CC(C)(NC(=O)c1ccccc1)C(=O)c1ccccc1 [Example 104] | 0 | 1 | 
COc1cccc(C(=O)NC(C)(C)C(=O)c2ccccc2)c1 [Example 107] | 2 | 1 | 
COc1cccc(C(=O)NC2(C(=O)c3cccc(C)c3)CCCC2)c1C [Example 2] |  |  | EC50 [1]: > 33 µM; fold induction at 33 µM [1]: 2620; 13B3 Rel Max FI [1]: 0.24; Z3 Rel Max FI [2]: 0.46; fold induction at 33 µM [2]: 786; CC50 [2]: 3.38 µM
COc1cccc(C(=O)C(NC(=O)c2cccc(OC)c2C)C(C)(C)C)c1 (centres unmarked) [Example 114] | 2 | 3 | 
CCC(CC)(NC(=O)c1cccc(OC)c1C)C(=O)c1ccc(OC)cc1 [Example 58] | 4 | 4 | 
COc1cccc(C(=O)NC2(C(=O)c3ccc(F)c(C)c3)CC2)c1C [Example 19] | 0 | 6 | 
COc1cccc(C(=O)NC2(C(=O)c3cccc(C)c3)CCC(=O)CC2)c1C [Example 61] | 0 | 102 | 
COc1cccc(C(=O)NC(C(=O)c2cccc(C)c2)C(C)(C)C)c1C (centres unmarked) [Example 113] | 1 | 4 | 
COc1cccc(C(=O)NC(C)(Cc2ccccc2)C(=O)c2ccc(C)cc2)c1C (centres unmarked) [Example 16] | 0 | 10 | 
CC(=O)NC(C(=O)c1ccc(C)cc1)c1ccccc1 (centres unmarked) [Example 92] | 0 | 1 | 
COc1cccc(C(=O)NC2(C(=O)c3ccc4c(c3)OCO4)CCCC2)c1C [Example 43] | 2 | 3 | 
COc1cccc(C(=O)C(C)(Cc2ccccc2)NC(=O)c2cccc(OC)c2C)c1 (centres unmarked) [Example 100] | 0 | 2 | 
